Test results from patent publication US8470844B2, “Imidazoacridinone derivative compounds and methods for their use” (Technion Research & Development Foundation Limited, priority 2008, dated 2013).

Columns and labels:
[1] = test system: A549 cells; assay: MTT cytotoxicity assay, parental A549 cells; format: cell-based, Human; details: 96 hours exposure, mean of at least three experiments
Description: (§1) Tissue culture: Human non-small cell lung cancer A549 cells and T-cell leukemia CCRF-CEM cells were grown under monolayer conditions or up to a maximal density of 10^6 cells/ml (for CCRF-CEM cells) in RPMI-1640 medium (GIBCO) supplemented with 10% fetal calf serum, 2 mM glutamine, 100 μg/ml penicillin and 100 μg/ml streptomycin (Biological Industries, Beth-Haemek, Israel) in a humid atmosphere of 5% CO2. Drug resistant A549/K1.5 cells with ABCG2 overexpression were maintained under a continuous drug selection with 1.5 μM C-1305. Bram, E. E., et al., (2007) Biochem Pharmacol 74(1), 41-53.
(§2) Cytotoxicity and growth inhibition assays: The cytotoxic activity of the various IA antitumor agents was determined using the MTT assay. Poindessous, V., et al., (2003) Clin Cancer Res 9(7), 2817-2825.
(§3) Exponentially growing cells were seeded at 5×10^3 cells/well in 24-well plates (2 ml medium/well). Following an overnight incubation, cells were exposed to different drug concentrations for 96 hours. Cellular viability was determined by adding the tetrazolium salt MTT for 4 h at 37° C., followed by solubilization of the intracellular precipitated formazan in 1 ml DMSO and absorbance was determined by a microplate reader (ASYS Hitech GmbH, Austria). Drug concentrations required to inhibit cell growth by 50% (IC50) compared with untreated controls were determined from the curves of survival versus drug concentrations using the SlideWrite software (Advanced Graphics Software, Inc., Encinitas, Calif.). Resistance folds (RF) were calculated by dividing the IC50 value of the resistant cells by that of the parental cell line. Values presented are means of at least three independent experiments, each performed in duplicates.

[2] = test system: A549/K1.5 cells; assay: MTT cytotoxicity assay, ABCG2-overexpressing A549/K1.5 cells; format: cell-based, Human; details: for IC50: ABCG2-overexpressing A549/K1.5 cells, 96 hours exposure, MTT; for RF (resistance fold): IC50 of A549/K1.5 cells divided by IC50 of parental A549 cells
Description: as §1, §2, §3
Quantitative evaluation of ABCG2 interaction with various IA derivatives: The extent of ABCG2-mediated resistance was expressed using the Resistance Fold (RF) parameter representing the ratio between the IC50 values of the resistant cells and parental cells. Likewise, ABCG2-dependent differential accumulation of IAs in ABCG2-overexpressing A549/K1.5 cells was compared using the ratio of IA accumulation in the presence or absence of the potent ABCG2 inhibitor FTC. This was termed the FTC-dependent Accumulation Fold (AF) and was determined for each IA at a constant IA concentration of 10 μM.

[3] = biological target: T1, ABCG2 (A549/K1.5 cells) (Homo sapiens, UniProt Q9UNQ0); assay: Fluorescence microscopy of nuclear accumulation of IAs in A549/K1.5 cells; format: cell-based; details: 10 μM IA, 1 hr, presence or absence of 5 μM FTC
T1 construct: Drug resistant A549/K1.5 cells with ABCG2 overexpression were maintained under a continuous drug selection with 1.5 μM C-1305; endogenous in cells; host or cells: A549/K1.5 (C-1305-selected subline of human non-small cell lung cancer A549)
T1 sequence (Q9UNQ0 1-655): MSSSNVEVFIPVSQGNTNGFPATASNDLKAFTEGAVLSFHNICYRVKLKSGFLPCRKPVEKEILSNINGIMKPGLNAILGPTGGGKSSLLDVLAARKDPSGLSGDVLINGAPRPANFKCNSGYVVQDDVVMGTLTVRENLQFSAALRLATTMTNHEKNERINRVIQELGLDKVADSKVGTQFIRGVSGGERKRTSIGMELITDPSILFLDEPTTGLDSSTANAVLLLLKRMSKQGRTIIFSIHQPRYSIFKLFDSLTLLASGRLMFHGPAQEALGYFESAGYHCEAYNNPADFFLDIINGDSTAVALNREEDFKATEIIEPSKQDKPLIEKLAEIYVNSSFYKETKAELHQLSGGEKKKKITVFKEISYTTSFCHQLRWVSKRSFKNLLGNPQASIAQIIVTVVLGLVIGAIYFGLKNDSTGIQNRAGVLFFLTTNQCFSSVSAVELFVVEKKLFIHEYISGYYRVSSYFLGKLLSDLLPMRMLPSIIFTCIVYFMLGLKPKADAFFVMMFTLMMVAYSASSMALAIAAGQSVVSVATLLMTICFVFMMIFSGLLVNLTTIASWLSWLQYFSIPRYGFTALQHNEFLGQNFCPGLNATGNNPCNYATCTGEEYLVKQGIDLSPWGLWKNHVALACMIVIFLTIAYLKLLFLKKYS
Description: In immunofluorescence microscopy of plasma membrane targeting of ABCG2 and nuclear accumulation of IAs, cells (1×10^4/well) were seeded in 24-well plates (1 ml medium/well) and incubated for 2 days, following which some wells were supplemented with 10 μM IA-containing medium±5 μM FTC and incubated for 1 h at 37° C. Cells were then washed twice with ice-cold PBS containing 0.1% BSA and blocked for 10 min at 4° C. with PBS containing 5% BSA. Cells were then washed once with ice-cold PBS containing 0.1% BSA and incubated for 30 min at 4° C. with a Phycoerythrin-conjugated, affinity-purified 5D3 mouse anti-human ABCG2 monoclonal antibody (1:100; eBioscience). Unspecific fluorescence was determined using cells that were incubated only with a secondary Phycoerythrin (PE)-conjugated goat anti-mouse IgG (1:200; Jackson Immunoresearch Labs, West Grove, Pa.). Cells were then washed twice and subjected to fluorescence microscopy using a DMIRE2 fluorescence microscope equipped with a DC300FX camera (Leica Microsystems, Wetzlar, Germany).
In order to exclude the possibility that differential subcellular accumulation of IA derivatives is the basis of the observed difference in cytotoxicity and cellular fluorescence, A549/K1.5 cells were incubated with 10 μM of selected IA derivatives from both group A and B in the presence or absence of FTC and subjected to fluorescence microscopy.

[4] = test system: untransfected HEK293 cells; assay: Flow cytometric accumulation in untransfected HEK293 cells; format: cell-based, Human; details: 1 μM IA, ±5 μM FTC
Description: For cytotoxicity and accumulation experiments, cells were grown in drug-free medium for at least one week prior to the experiments. Human embryonic kidney cells (HEK293) and their stable transfectants overexpressing the R482, G482 and T482 ABCG2 were grown in the above RPMI-1640 medium supplemented with 2 mg/ml G-418. Bram, E. E., et al., (2006) Cancer Chemother Pharmacol 58(6), 826-834.
IA derivative and tetramethylrosamine (TMR) accumulation in parental HEK293 and their HEK293/ABCG2 R/G/T482 transfectants were carried out as described herein with the a slight amendment of using a single IA concentration of 1 μM ±FTC (5 μM) for the selected as well as 0.1 μM for TMR accumulation. Robey, R. W., et al., (2003) Br J Cancer 89(10), 1971-1978. Cellular fluorescence was determined using a FACSCalibur (BD Bioscience, San Jose, Calif. USA) flow cytometer. FL1-H excitation of IAs was at 488 nm and emission was collected at 525 nm, whereas FL2-H excitation of TMR was at […] and emission was collected at 574 nm. Flow cytometric results are presented as means±SD of 3 independent experiments.
Bram, E. E., et al., (2006) Cancer Chemother Pharmacol 58(6), 826-834.

[5] = biological target: T1, ABCG2 (A549/K1.5 cells); assay: Flow cytometric IA accumulation in A549/K1.5 cells with or without fumitremorgin C; format: cell-based
Description: In this assay, one ml aliquots of A549/K1.5 or CCRF-CEM cell suspensions (1×10^6 cells/ml) in growth medium containing 20 mM Hepes at pH 7.3 were distributed into 1.5 ml polypropylene Eppendorf test tubes. […] Rabindran, S. […] Alternatively, in time-course experiments, IA derivatives at a constant concentration of 10 μM were added to a CCRF-CEM cell suspension incubated at 37° C., and 1 ml aliquots were removed at variable time points up to 1 hour. Following incubation, test tubes were transferred to ice and centrifuged at 4° C. Cells were then washed twice and re-suspended in ice-cold PBS containing 1% fetal calf serum and kept in the dark at 4° C. until analysis. […] Quantitative evaluation of ABCG2 interaction with various IA derivatives: The extent of ABCG2-mediated resistance was expressed using the Resistance Fold (RF) parameter representing the ratio between the IC50 values of the resistant cells and parental cells.

CN(C)CCNc1ccc2ncn3c4ccccc4c(=O)c1c23.Cl [C-1176]
IC50 [1]: 2.35 ± 0.75 µM | IC50 [2]: 1.21 ± 0.65 µM | RF (resistance fold) [2]: 0.51

CN(C)CCCNc1ccc2ncn3c4ccccc4c(=O)c1c23.Cl [C-1212]
IC50 [1]: 1.89 ± 0.42 µM | IC50 [2]: 1.93 ± 0.84 µM | RF (resistance fold) [2]: 1.02

Cc1nc2ccc(NCCN(C)C)c3c(=O)c4ccccc4n1c23.Cl [C-1213]
IC50 [1]: 12.3 ± 2.5 µM | IC50 [2]: 18.3 ± 2.4 µM | RF (resistance fold) [2]: 1.49

CN(C)CCCCCNc1ccc2ncn3c4ccccc4c(=O)c1c23.Cl [C-1266]
IC50 [1]: 2.81 ± 0.27 µM | IC50 [2]: 0.56 ± 0.002 µM | RF (resistance fold) [2]: 0.20 | hypersensitivity of A549/K1.5 cells ([2]; versus parental A549 cells): 5.0 fold | nuclear accumulation (fluorescence microscopy) [3]: comparable and significant nuclear accumulation regardless of ABCG2 inhibition by FTC

Cc1nc2ccc(NCCN(C)C)c3c(=O)c4cc(O)ccc4n1c23.Cl [C-1309]
IC50 [1]: 0.05 ± 0.007 µM | IC50 [2]: 3.22 ± 0.18 µM | RF (resistance fold) [2]: 60.80 | resistance of A549/K1.5 cells ([2]; versus parental A549 cells): 61 fold | resistance of A549/K1.5 cells (in words) ([2]; versus parental A549 cells): prominent resistance | efflux (in words) [4]: not from untransfected HEK293 cells

CCCCN(CCCC)CCNc1ccc2nc(C)n3c4ccc(O)cc4c(=O)c1c23.Cl [C-1315]
IC50 [1]: 1.69 ± 0.26 µM | ABCG2-mediated extrusion / interaction with ABCG2 (in words) [5]: failed to display any significant interaction with ABCG2 | IC50 [2]: 3.46 ± 0.16 µM | RF (resistance fold) [2]: 2.05

CCN(CC)CCNc1ccc2ncn3c4ccc(OC)cc4c(=O)c1c23.Cl [C-1330]
IC50 [1]: 2.16 ± 0.27 µM | IC50 [2]: 0.97 ± 0.08 µM | RF (resistance fold) [2]: 0.45 | hypersensitivity of A549/K1.5 cells ([2]; versus parental A549 cells): 2.2 fold

CCN(CC)CCCNc1ccc2ncn3c4ccc(O)cc4c(=O)c1c23.Cl [C-1335]
IC50 [1]: 0.09 ± 0.004 µM | IC50 [2]: 1 ± 0.25 µM | RF (resistance fold) [2]: 11.10 | resistance of A549/K1.5 cells (in words) ([2]; versus parental A549 cells): prominent resistance

CN(C)CCCNc1ccc2ncn3c4ccc(O)cc4c(=O)c1c23.Cl [C-1371]
IC50 [1]: 0.04 ± 0.006 µM | IC50 [2]: 0.7 ± 0.03 µM | RF (resistance fold) [2]: 17.90 | resistance of A549/K1.5 cells (in words) ([2]; versus parental A549 cells): prominent resistance

COc1ccc2c(c1)c(=O)c1c(NCCCN(C)C)ccc3nc(C)n2c31.Cl [C-1375]
IC50 [1]: 1.3 ± 0.06 µM | IC50 [2]: 1.25 ± 0.11 µM | RF (resistance fold) [2]: 0.96

CCN(CC)CCCNc1ccc2nc(C)n3c4ccc(OC)cc4c(=O)c1c23.Cl [C-1379]
IC50 [1]: 1.07 ± 0.03 µM | IC50 [2]: 0.68 ± 0.06 µM | RF (resistance fold) [2]: 0.63

CCN(CC)CCNc1ccc2ncn3c4ccccc4c(=O)c1c23.Cl [C-1415]
IC50 [1]: 2.7 ± 0.21 µM | IC50 [2]: 2.38 ± 0.12 µM | RF (resistance fold) [2]: 0.88

CCN(CC)CCNc1ccc2ncn3c4cc(O)ccc4c(=O)c1c23.Cl [C-1419]
IC50 [1]: 2.92 ± 0.42 µM | IC50 [2]: 31.3 ± 2.55 µM | RF (resistance fold) [2]: 10.70 | resistance of A549/K1.5 cells (in words) ([2]; versus parental A549 cells): prominent resistance

CN(C)CCCCCNc1ccc2ncn3c4ccc(O)cc4c(=O)c1c23.Cl [C-1492]
IC50 [1]: 1.69 ± 0.12 µM | IC50 [2]: 17.2 ± 1.95 µM | RF (resistance fold) [2]: 10.10 | resistance of A549/K1.5 cells (in words) ([2]; versus parental A549 cells): prominent resistance

CCN(CC)CCNc1ccc2ncn3c4c(OC)ccc(OC)c4c(=O)c1c23.Cl [C-1503]
IC50 [1]: 3.5 ± 0.64 µM | IC50 [2]: 3.09 ± 0.74 µM | RF (resistance fold) [2]: 0.88

CCN(CC)CCNc1ccc2ncn3c4ccc(C)cc4c(=O)c1c23.Cl [C-1554]
IC50 [1]: 2.02 ± 0.33 µM | IC50 [2]: 3.07 ± 0.8 µM | RF (resistance fold) [2]: 1.51

CCN(CC)CCNc1ccc2ncn3c4ccc(C(C)(C)C)cc4c(=O)c1c23.Cl [C-1558]
IC50 [1]: 1.48 ± 0.25 µM | IC50 [2]: 2.51 ± 0.17 µM | RF (resistance fold) [2]: 1.70

CN(C)CCNc1ccc2ncn3c4ccc(O)cc4c(=O)c1c23.Cl [C-1584]
IC50 [1]: 0.01 ± 0.002 µM | IC50 [2]: 0.25 ± 0.01 µM | RF (resistance fold) [2]: 19.20 | resistance of A549/K1.5 cells (in words) ([2]; versus parental A549 cells): prominent resistance

CCN(CC)CCNc1ccc2ncn3c4c(O)cccc4c(=O)c1c23.Cl [C-1633]
IC50 [1]: 2.26 ± 0.33 µM | IC50 [2]: 9.83 ± 1.44 µM | RF (resistance fold) [2]: 4.35 | resistance of A549/K1.5 cells (in words) ([2]; versus parental A549 cells): prominent resistance

CCN(CC)CCCCCCCCCNc1ccc2ncn3c4ccc(O)cc4c(=O)c1c23.Cl [C-2018]
IC50 [1]: 1.54 ± 0.31 µM | ABCG2-mediated extrusion / interaction with ABCG2 (in words) [5]: failed to display any significant interaction with ABCG2 | IC50 [2]: 2.13 ± 0.62 µM | RF (resistance fold) [2]: 1.38
